Holding throughout (assay): inhibition of tumour cell growth, NCI panel, 48 h
Test [1] relates to SNB-19 CNS.
Test [2] relates to HCC-2998 colon.
Test [3] concerns T-47D breast.
The subject of test [4] is CCRF-CEM leukemia.
Test [5] concerns NCI-H226 lung.
Test [6] deals with UO-31 renal.
Test [7] deals with HOP-92 NSCLC.

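Five compound concentrations were applied to cells in 96-well plates for 48 hours; endpoints were derived by simple linear interpolation of the resulting dose-response curve. TGI: concentration producing complete growth inhibition.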

Take `CCOC(=O)[C@@H]1CCN2CN(c3ccc(OC)cc3)N=C(c3ccccc3)[C@@]12c1ccccc1`: the TGI in test [1] was greater than 100 µM; in test [2] it was 67.1 µM; in test [3], 74.6 µM; in test [4], greater than 100 µM; in test [5], 38.9 µM; in test [6], 77.2 µM. In addition, the TGI in test [7] turned out to be 27.9 µM.

On to `Cc1cc2nc(N3C(=O)/C(=C/c4ccccc4S)N=C3c3ccccc3)sc2cc1C`, for which the TGI in test [1] was greater than 100 µM; in test [2], greater than 100 µM; in test [3] it was greater than 100 µM; in test [4], 46.6 µM; in test [6], greater than 100 µM; in test [7], 82.8 µM.

For `CC(C)(C)OC(=O)N1CCC2(C)CC(=O)CC=C12` (centres undefined), the TGI in test [1], in test [2], in test [3], in test [4], in test [5] and in test [6] was greater than 100 µM each time. The TGI in test [7] is greater than 100 µM.

`CC1OC(OC2C(OC(=O)[C@@H]3CC(C)(C)C[C@@H]4C5=CC[C@@H]6[C@@]7(C)C[C@H](O)[C@H](OC8OC(CO)C(O)C(O)C8O)[C@@](C)(CO)C7[C@H](O)C[C@@]6(C)[C@]5(C)C[C@@H](O)[C@H]43)OCC(O)C2O)C(O)C(O)C1O` (some centres undefined): the TGI in test [1], in test [2], in test [3], in test [4], in test [5] and in test [6] was greater than 15 µM each time. The compound further gave a TGI in test [7] greater than 15 µM.

Turning to `CCN(CC)c1c(-c2c(N(CC)CC)c(OC(C)=O)c3sccn3c2=O)c(=O)n2ccsc2c1OC(C)=O`, the TGI in test [1], in test [2], in test [4], in test [5], in test [6] and in test [7] was greater than 100 µM throughout.

Turning to `CN(C)CCCNc1c(C#N)[n+]([O-])c2cc(Cl)ccc2[n+]1[O-]`, the TGI is greater than 100 µM in test [1]; 18.7 µM in test [2]; 40.7 µM in test [3]; 42 µM in test [4]; 48.5 µM in test [5]; greater than 46.3 µM in test [6]. The TGI in test [7] turned out to be 25.5 µM.

In the case of `Nc1ncnc2c1ncn2C1OC(CO)C(O)C(O)C1O` (centres undefined), the TGI in test [1], in test [2], in test [4], in test [5], in test [6] and in test [7] was greater than 100 µM in each case.

As to `O=C1C=CC2(O)OCCN(CCO)C2=C1` (centres undefined) (tested in a mixture with another compound), the TGI in test [1], in test [2], in test [3], in test [4], in test [5] and in test [6] was greater than 100 µM in each case. The compound also yielded a TGI in test [7] greater than 100 µM.

As for `CCN(C(C)=O)c1cnc(/C=N/NC(N)=S)c2ccccc12`, the TGI in test [1] is greater than 100 µM; in test [2] it was greater than 100 µM; in test [3], greater than 100 µM; in test [4] it was greater than 100 µM; in test [5], greater than 100 µM; in test [6] it was 7.85 µM. The same compound returned a TGI in test [7] greater than 100 µM.

For the compound `Nc1ccc(CCSSCCc2ccc(N)cc2)cc1`, the TGI was greater than 100 µM in test [1]; 34.4 µM in test [2]; greater than 92.3 µM in test [3]; greater than 100 µM in test [4]; greater than 100 µM in test [5]; greater than 82.8 µM in test [6]. Further, the TGI in test [7] is greater than 100 µM.

Take `NC1CC(Cl)c2c(Cl)sc(Cl)c21` (centres undefined): the TGI in test [2], in test [3], in test [4], in test [5], in test [6] and in test [7] was greater than 100 µM each time.

For the compound `COc1ccc(NC(=O)/C(=N/NC(N)=S)C2C(=O)NC(=S)NC2=O)c(OC)c1`, the TGI in test [1], in test [2], in test [3], in test [4], in test [5] and in test [6] was greater than 100 µM throughout. In addition, the TGI in test [7] is greater than 100 µM.

Consider `NC(=S)N/N=C1/CCCC2CCCC[C@@H]12` (some centres undefined), for which the TGI in test [1], in test [2], in test [3], in test [4], in test [5] and in test [6] was greater than 100 µM each time. Moreover, in test [7], the TGI is greater than 100 µM.

For `CC1(C)C/C(=N/O)c2c(nc3ccc4ccccc4c3c2-c2ccc(Cl)cc2)C1`, the TGI is greater than 100 µM in test [1]; 43.8 µM in test [2]; 34.2 µM in test [3]; 27.6 µM in test [4]; 46.3 µM in test [5]; 43.5 µM in test [6]. In test [7], this compound returned a TGI of 42.2 µM.

Regarding `COc1cccc(-c2nc3ccccc3c(=O)[nH]2)c1OC`, the TGI in test [1], in test [2], in test [3], in test [4], in test [5] and in test [6] was greater than 100 µM each time.

For the compound `c1ccc2c(c1)cc1c3[nH]c4ccccc4c3ccn21`, the TGI in test [1], in test [2], in test [3], in test [4], in test [5] and in test [6] was greater than 10 µM throughout. Also, in test [7], the TGI is greater than 10 µM.

As to `CN(N)/N=N/c1nc[nH]c1[N+](=O)[O-]`, the TGI in test [2] was greater than 100 µM; in test [3], greater than 100 µM; in test [4], 33 µM; in test [5] it was greater than 100 µM; in test [6], greater than 100 µM.

With `C=CCN1C(=O)/C(=C/c2ccc(C)cc2)NC1=S`, the TGI in test [1], in test [2], in test [3], in test [4], in test [5] and in test [6] was greater than 100 µM each time. The compound also returned a TGI in test [7] greater than 100 µM.

(Values after PubChem BioAssay (NCI).)
